Values joined by “and” are separate entries in the source; they are usually repeats but may differ in a detail not shown here. Equal entries are not always repeated.
Legend:
[1] = system: S. enteritidis CVCC3377; experiment: Inner membrane permeabilization, PI staining by flow cytometry; type: cell-based, Salmonella enteritidis; conditions: 1 × MIC, 37 °C, untreated 0.76%
Description: The permeabilization of the inner membrane was performed according to a previous report by Li et al. with slight modifications. […] Bacterial cells were then washed twice with PBS, fixed with 50 μg/ml PI and analyzed using a BD FACS Calibur Flow Cytometer (Franklin Lakes, New Jersey, USA). Data were analyzed using CellQuest Pro software (BD, USA).

[2] = system: S. aureus ATCC25923; experiment: Outer membrane permeabilization, NPN uptake; type: cell-based, Staphylococcus aureus; conditions: 1×, 2× or 4 × MIC; HEPES buffer pH 7.2
Description: The effects of Lfcin4 and Lfcin5 on the outer membrane of S. aureus ATCC25923 and S. enteritidis CVCC3377 were determined by measuring the uptake of NPN[44][45]. Mid-log phase cells were washed with sterile normal saline three times and suspended in 5 mM HEPES buffer (pH 7.2, containing 5 mM glucose) to an OD at 600 nm of 0.5. […] The relative fluorescence intensity was measured using an Infinite M200 PRO plate reader. The excitation and emission wavelengths were set at 328 and 438 nm, respectively. Treatment with PBS severed as a negative control, and treatment with ampicillin or colistin was used as a positive control.

[3] = system: LPS-induced lung injury; experiment: LPS-induced lung injury, histology; type: in vivo, mouse (C57BL/6); conditions: 15 mg/kg i.p. 30 min after LPS 10 mg/kg
Description: Thirty minutes after intraperitoneal injection of LPS (10 mg/kg of body weight in 0.2 ml), mice were intraperitoneally injected with Lfcin4, Lfcin5 or colistin (15 mg/kg of body weight in 0.2 ml). Mice were sacrificed at 8 h, 1 d, 4 d, and 7 d after LPS injection. The lungs were removed, washed with PBS and fixed in 4% paraformaldehyde at 4 °C for 24 h. After they were washed with PBS and dehydrated with a graded series of ethanol (75‒95%), the tissues were infiltrated with xylene and embedded in paraffin wax. Sections were cut, stained with hematoxylin and eosin and examined under a light microscope. Mice injected with LPS or only PBS served as positive or mock-treated controls, respectively.

[4] = system: genomic DNA from E. coli O157; experiment: Gel retardation (EMSA) of genomic DNA; type: binding, Escherichia coli; conditions: 0.7% agarose gel, 10 min 37 °C; ratios tested 0, 0.5, 1, 2.5, 5, 10 (w/w)
Description: (§1) Genomic DNA was extracted from S. aureus ATCC25923, E. coli O157 and S. enteritidis CVCC3377 using a TIANamp Bacteria DNA Kit (TIANGEN Biotech Co., Ltd., Beijing). The gel retardation experiment was performed by mixing the bacterial DNA with different concentrations of Lfcin4 or Lfcin5 in 20 μl binding buffer (10 mM Tris-HCl, pH 8.0, 5% glycerol, 1 mM dithiothreitol, 1 mM EDTA, 20 mM KCl, and 50 μg/ml bovine serum albumin)[41]. The ratios of peptide to DNA were 0, 0.5, 1, 2.5, 5.0, and 10.0 (w/w). The mixtures were incubated for 10 min at 37 °C and then subjected to electrophoresis on a 0.7% agarose gel.

[5] = system: S. enteritidis CVCC3377; type: cell-based, Salmonella enteritidis; conditions: microtiter broth dilution, 10^5 CFU/ml, 16‒18 h at 37 °C; representative of three independent experiments
Description: (§2) The MIC values of LfcinB17-33 derivatives against bacteria were determined by the microtiter broth dilution method. Briefly, 10 μl of serially diluted aliquots of peptides were added to each well of 96-well microtiter plates, followed by the addition of 90 μl exponential phase bacteria (10^5 CFU/ml) and incubated for 16‒18 h at 37 °C.

[6] = system: genomic DNA from S. enteritidis CVCC3377; experiment: Gel retardation (EMSA) of genomic DNA; type: binding, Salmonella enteritidis; conditions: 0.7% agarose gel, 10 min 37 °C; ratios tested 0, 0.5, 1, 2.5, 5, 10 (w/w)
Description: as §1

[7] = system: S. aureus ATCC25923; experiment: Macromolecular synthesis, incorporation of radioactive precursors; type: cell-based, Staphylococcus aureus; conditions: 1 × MIC; 3H-glucosamine
Description: The effects of each peptide on the incorporation of L-[methyl-^3H] thymidine, [5-^3H] uridine, D-[6-^3H(N)] glucosamine hydrochloride, and L-[3,4,5-^3H] leucine into DNA, RNA, peptidoglycans, and proteins were investigated in S. aureus ATCC25923. […] Radioactive precursors of ^3H-thymidine, ^3H-uridine, ^3H-leucine, and ^3H-glucosamine (40 μCi/ml) were added to cultures to measure macromolecular synthesis and incubated for 20 min at 37 °C. Cold 25% trichloroacetic acid (TCA) was added to the mixture and placed on ice for 30 min. After centrifugation, pellets were washed twice with 25% TCA, dried and counted with scintillation fluid on a MicroBeta 1450 scintillation counter (Perkin Elmer)[46].

[8] = system: P. aeruginosa CICC21630; type: cell-based, Pseudomonas aeruginosa; conditions: microtiter broth dilution, 10^5 CFU/ml, 16‒18 h at 37 °C; representative of three independent experiments
Description: as §2

[9] = system: Bacillus subtilis ATCC6633; type: cell-based; conditions: microtiter broth dilution, 10^5 CFU/ml, 16‒18 h at 37 °C; representative of three independent experiments
Description: as §2

[10] = system: Streptococcus suis CVCC606; type: cell-based; conditions: microtiter broth dilution, 10^5 CFU/ml, 16‒18 h at 37 °C; representative of three independent experiments
Description: as §2

[11] = system: Salmonella typhimurium ATCC14028; type: cell-based; conditions: microtiter broth dilution, 10^5 CFU/ml, 16‒18 h at 37 °C; representative of three independent experiments
Description: as §2

[12] = system: Escherichia coli CVCC195; type: cell-based; conditions: microtiter broth dilution, 10^5 CFU/ml, 16‒18 h at 37 °C; representative of three independent experiments
Description: as §2

[13] = system: S. choleraesuis CVCC503; type: cell-based; conditions: microtiter broth dilution, 10^5 CFU/ml, 16‒18 h at 37 °C; representative of three independent experiments
Description: as §2

[14] = system: Enterococcus faecium CMCC1.2136; type: cell-based; conditions: microtiter broth dilution, 10^5 CFU/ml, 16‒18 h at 37 °C; representative of three independent experiments
Description: as §2

[15] = system: S. pullorum CVCC1789; type: cell-based; conditions: microtiter broth dilution, 10^5 CFU/ml, 16‒18 h at 37 °C; representative of three independent experiments
Description: as §2

[16] = system: Pseudomonas aeruginosa CICC10419; type: cell-based; conditions: microtiter broth dilution, 10^5 CFU/ml, 16‒18 h at 37 °C; representative of three independent experiments
Description: as §2

[17] = system: S. pullorum CVCC1802; type: cell-based; conditions: microtiter broth dilution, 10^5 CFU/ml, 16‒18 h at 37 °C; representative of three independent experiments
Description: as §2

[18] = system: Staphylococcus aureus ATCC43300; type: cell-based; conditions: microtiter broth dilution, 10^5 CFU/ml, 16‒18 h at 37 °C; representative of three independent experiments
Description: as §2

Sequence: FKAWRWAWRMKKLAAPS [Lfcin4, 17-residue LfcinB17-31 derivative, Trp/Ala-containing]
- PI-positive cells ([1]; 30 min): 2.94%
- PI-positive cells ([1]; 120 min): 18.90%
- time to permeabilization of the outer membrane (NPN fluorescence) [2]: ≤ 1 min
- lung histology (in words) ([3]; 8 h‒4 d): apparently less lung damage
- lung histology (in words) ([3]; 7 d): no obvious pathological differences
- peptide:DNA mass ratio at which migration of genomic DNA is impaired [4]: over 1.0 mass ratio (peptide:DNA)
- MIC [5]: 1.8 μM and 4 μg/ml
- peptide:DNA mass ratio at which migration of genomic DNA is impaired [6]: greater than 2.5 mass ratio (peptide:DNA)
- label incorporation into peptidoglycans (in words) [7]: increased label incorporation into peptidoglycans
- MIC [8]: >58 μM and >128 μg/ml
- MIC [9]: 15 μM and 32 μg/ml
- MIC [10]: 58 μM and 128 μg/ml
- MIC [11]: 58 μM and 128 μg/ml
- MIC [12]: 30 μM and 64 μg/ml
- MIC [13]: 58 μM and 128 μg/ml
- MIC [14]: 7.3 μM and 16 μg/ml
- MIC [15]: >58 μM and >128 μg/ml
- MIC [16]: >58 μM and >128 μg/ml
- MIC [17]: >58 μM and >128 μg/ml
- MIC [18]: 29 μM and 64 μg/ml
